Values quoted from earlier work, collected in patent US10251905B2, “Tissue maintenance” (Hibernation Therapeutics, A KF LLC, priority 2006, dated 2019).

Experiments:
[1] = target: T1, NK(2) receptor (Homo sapiens, UniProt P21452); conditions: relative to NK(1)
T1 sequence (P21452 1-398): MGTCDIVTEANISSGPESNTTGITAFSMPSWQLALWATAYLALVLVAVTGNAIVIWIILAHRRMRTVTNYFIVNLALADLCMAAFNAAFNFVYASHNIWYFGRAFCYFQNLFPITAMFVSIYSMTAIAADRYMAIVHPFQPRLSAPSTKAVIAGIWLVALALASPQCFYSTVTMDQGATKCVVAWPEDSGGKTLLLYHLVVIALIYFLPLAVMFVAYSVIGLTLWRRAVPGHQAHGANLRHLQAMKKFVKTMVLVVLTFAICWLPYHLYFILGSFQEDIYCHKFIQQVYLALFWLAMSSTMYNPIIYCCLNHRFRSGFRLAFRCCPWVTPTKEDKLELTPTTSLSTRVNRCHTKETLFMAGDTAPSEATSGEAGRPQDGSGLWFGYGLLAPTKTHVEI

[2] = target: human NK(1) receptor (Homo sapiens, UniProt P25103)
human NK(1) receptor, sequence (P25103 whole entry): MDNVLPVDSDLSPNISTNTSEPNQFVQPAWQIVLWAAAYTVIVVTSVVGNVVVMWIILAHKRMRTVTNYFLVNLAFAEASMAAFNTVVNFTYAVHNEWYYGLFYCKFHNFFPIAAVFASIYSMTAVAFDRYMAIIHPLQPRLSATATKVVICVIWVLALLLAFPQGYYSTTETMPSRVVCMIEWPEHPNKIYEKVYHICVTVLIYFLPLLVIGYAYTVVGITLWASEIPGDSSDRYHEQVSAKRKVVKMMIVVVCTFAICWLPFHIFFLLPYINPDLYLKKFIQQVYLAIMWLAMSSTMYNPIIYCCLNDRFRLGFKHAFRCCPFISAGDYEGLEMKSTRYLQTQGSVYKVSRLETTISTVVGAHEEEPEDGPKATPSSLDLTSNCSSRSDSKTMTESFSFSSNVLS

[3] = target: T2, NK(3) receptor (Homo sapiens, UniProt P29371); conditions: relative to NK(1)
T2 sequence (P29371 1-465): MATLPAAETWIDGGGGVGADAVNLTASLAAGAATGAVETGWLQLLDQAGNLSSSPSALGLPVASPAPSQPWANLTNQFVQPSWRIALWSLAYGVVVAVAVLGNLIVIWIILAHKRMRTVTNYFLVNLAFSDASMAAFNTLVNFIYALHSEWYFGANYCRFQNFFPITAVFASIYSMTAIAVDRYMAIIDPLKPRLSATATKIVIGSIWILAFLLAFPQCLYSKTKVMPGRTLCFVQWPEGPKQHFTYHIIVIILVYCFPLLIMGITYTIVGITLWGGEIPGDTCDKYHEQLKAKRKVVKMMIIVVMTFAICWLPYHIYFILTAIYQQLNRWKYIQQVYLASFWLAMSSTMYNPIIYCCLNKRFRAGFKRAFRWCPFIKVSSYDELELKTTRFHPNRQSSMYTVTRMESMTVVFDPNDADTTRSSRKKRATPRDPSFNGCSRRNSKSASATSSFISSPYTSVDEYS

Row | SMILES | selectivity toward NK(2) receptors [1] | Ki [2] [nM] | selectivity toward NK(3) receptors [3] | half life in the blood
1 | Cc1cccc(C)c1NC(=O)C[C@H]1CCN(C(=O)c2cc(C(F)(F)F)cc(C(F)(F)F)c2)[C@@H](Cc2ccccc2)C1.O=C(O)C[C@H](O)C(=O)O (relative stereo) [R116301, (2R-trans)-4-[1-[3,5-bis(trifluoromethyl)benzoyl]-2-(phenylmethyl)-4-piperidinyl]-N-(2,6-dimethylphenyl)-1-acetamide (S)-Hydroxybutanedioate] | over 200 fold | 0.45 | over 200 fold | 
2 | Nc1ncnc2c1ncn2[C@@H]1O[C@H](CO)[C@@H](O)[C@H]1O [adenosine] |  |  |  | about 10 seconds
